The assay deals with T1, human granzyme B (Homo sapiens, UniProt P10144).
T1 construct: from tissue; host or cells: human lymphocytes
The assay is described as follows: Competitive binding assay of human granzyme B with Compound ^18F-21-Al radioligand. As to conditions: competition with 20 nM Compound ^18F-21-Al, human lymphocyte GZB, 37° C., 90 minutes. Here is the method:
Purpose: To perform competitive binding assays with human granzyme B using Compound ^18F-21-Al to determine IC50 values of potential granzyme B ligands
Initial Plate Preparation (including total binding and non-specific binding): • 1. 78 μL of reaction buffer, as described above, is added to each well in a 96 well plate • 2. For wells used to examine total binding (defined as the binding of the radioligand in the absence of competitors), 2 μL of DMSO is added to give 1% final DMSO concentration for all wells • 3. For wells used to examine non-specific binding (defined as the binding of the radioligand in the presence of 10 μM 21), 2 μL of 1 mM Compound 21 is added to give a final concentration of 10 μM
• 1. Granzyme B (GZB, human lymphocyte) is diluted to 0.5 μg/mL using reaction buffer as described above • 2. 100 μL of 0.5 μg/mL diluted human GzB is added to each well, giving 50 ng per well and a final concentration of 0.25 μg/mL
• 1. DMSO or water is added to the respective compound vial to make 1 mM compound stock solution • 2. 1 mM compound stock solution is serially diluted by ½ log (3.16 fold) by adding 18.5 μL of compound stock to 40 μL of DMSO, mixing by pipetting up and down, and transferring 18.5 μL of the mixture to 40 μL of DMSO. This process is repeated to create 10 dilution points for test compounds. • 3. For wells used to examine ligand binding competition, 2 μL of each dilution is dispensed into the 96 well plates prepared as described above, giving a further dilution of 1/100.
• 1. 200 nM of Compound ^18F-21-Al (10× radioligand stock) is prepared in reaction buffer, aiming for approximately 2 million CPM per 20 μL of solution (input). • 2. 20 μL of radioligand stock is dispensed into each well to give a final concentration per well of 20 nM.
• 1. All 96 wells should have a final volume of 200 μL, and the assay plates are incubated at 37° C. for 90 minutes. • 2. All samples from the assay plates are transferred to MultiScreenHTS FB plates that have been presoaked in PBS buffer, pH 7.4, and filtered using a vacuum manifold. An additional 150 μL of PBS buffer is added to each well in the assay plates and combined to ensure transfer of any remaining samples • 3. MultiScreenHTS FB plates are washed 3× with 150 μL of PBS buffer. • 4. All filters are separated and transferred to individual tubes using Multiscreen punch tips and the Millipore multiple punch apparatus • 5. The sample set is analyzed using the Wizard 2480 automatic gamma-counter [Perkin Elmer] through a [^18F]-specific profile. Values are reported as decay-corrected counts per minute (CPM). • 6. Resulting CPM values are normalized and converted to % inhibition by the following equation:
[formula] • *the total bound fraction is typically less than 10% of the added radioligand under such assay conditions. • Resulting % inhibition values were plotted using the software GraphPad Prism 8.4.3 using the One site—Fit log IC50 equation to determine the IC50 value for each ligand.
[formula] • Y=% Inhibition • X=Log concentration of the cold competing ligand (M) • A=minimum Y (0%) • B=maximum Y (100%) • Log IC50=Log concentration of cold competing ligand (M) at half-way between minimum and maximum Y

Data on 8 molecules can be found in US20260158177A1, “COMPOUNDS SPECIFIC TO GRANZYME B AND USES THEREOF” (CYTOSITE BIOPHARMA INC., priority 2021, published 2026).

Molecules are shown by their SMILES. Numbered stars: 1 amine (or outer) side, 2 acyl side, 3 side chain; on linkers, the order of the positions; unused ones are H or OH. Square brackets hold non-standard residues; d marks the D form. Peptide text beside a SMILES is read from it. * marks the point of attachment. X2 = O=C1CN2CCN(CCN(CC3CCN(CC(=O)*)CC3)CC2)CC(=O)[O][Al]([F])[O]1; NOTA(AlF) = O=C1CN2CCN(CCN(CC(=O)*)CC2)CC(=O)[O][Al]([F])[O]1; Haic = O=C1[C@@H](N[*:1])CCc2cccc3c2N1[C@H](C(=O)[*:2])C3; NH(5-HO-2-oxo-oxolan-4-yl) = O=C1CC(N*)C(O)O1; X1 = O=C(CN1CCN([*:1])CC1)[*:2]

T1 sequence (P10144 21-247): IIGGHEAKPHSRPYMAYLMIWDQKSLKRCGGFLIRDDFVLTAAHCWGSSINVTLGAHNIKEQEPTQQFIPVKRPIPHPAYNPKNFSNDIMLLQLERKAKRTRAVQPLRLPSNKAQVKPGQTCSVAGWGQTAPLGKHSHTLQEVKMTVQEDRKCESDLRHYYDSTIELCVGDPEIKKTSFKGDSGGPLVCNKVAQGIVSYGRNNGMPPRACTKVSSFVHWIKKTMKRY

By IC50 is commonly meant the concentration that gives 50% inhibition. Take `CC[C@H](C)[C@H](NC(=O)COCCOCCNC(=O)COCCOCCNC(=O)[C@@H](CCC(=O)O)NC(=O)CN1CCN(C(=O)CN2CCN3CCN(CC2)CC(=O)[O][Al]([F])[O]C(=O)C3)CC1)C(=O)N[C@H]1CCc2cccc3c2N(C1=O)[C@H](C(=O)NC1CC(=O)OC1O)C3` (stereo partly drawn) [Compound 11-Al, 2,2′-(7-(2-(4-((4R,25S,26S)-4-(2-carboxyethyl)-25-(((3S,6S)-6-((2-hydroxy-5-oxotetrahydrofuran-3-yl)carbamoyl)-4-oxo-1,2,3,4,6,7-hexahydroazepino[3,2,1-hi]indol-3-yl)carbamoyl)-26-methyl-2,5,14,23-tetraoxo-9,12,18,21-tetraoxa-3,6,15,24-tetraazaoctacosyl)piperazin-1-yl)-2-oxoethyl)-1,4,7-triazonane-1,4-diyl)diacetic acid, aluminum fluoride complex (1:1)]: the 50% inhibitory concentration (IC50) was found to be 2.4 nM.
As to `CC[C@H](C)[C@H](NC(=O)CNC(=O)CNC(=O)[C@H](CCC(=O)O)NC(=O)CN1CCN(C(=O)CN2CCN3CCN(CC2)CC(=O)[O][Al]([F])[O]C(=O)C3)CC1)C(=O)N[C@H]1CCc2cccc3c2N(C1=O)[C@H](C(=O)NC1CC(=O)OC1O)C3` (stereo partly drawn) [Compound 8-Al, 2,2′-(7-(2-(4-((4S,13S,14S)-4-(2-carboxyethyl)-13-(((3S,6S)-6-((2-hydroxy-5-oxotetrahydrofuran-3-yl)carbamoyl)-4-oxo-1,2,3,4,6,7-hexahydroazepino[3,2,1-hi]indol-3-yl)carbamoyl)-14-methyl-2,5,8,11-tetraoxo-3,6,9,12-tetraazahexadecyl)piperazin-1-yl)-2-oxoethyl)-1,4,7-triazonane-1,4-diyl)diacetic acid, aluminum fluoride complex (1:1)] ({NOTA(AlF)}-[X1]EGGI[Haic]-{NH(5-HO-2-oxo-oxolan-4-yl)}), the IC50 came out at 6.5 nM.
In the case of `CC[C@H](C)[C@H](NC(=O)COCCNC(=O)[C@@H](CCC(=O)O)NC(=O)[C@@H](CCC(=O)O)NC(=O)CN1CCC(CN2CCN3CCN(CC2)CC(=O)[O][Al]([F])[O]C(=O)C3)CC1)C(=O)N[C@H]1CCc2cccc3c2N(C1=O)[C@H](C(=O)NC1CC(=O)OC1O)C3` (stereo partly drawn) [Compound 4-Al, 2,2′-(7-((1-((4R,7R,16S,17S)-4,7-bis(2-carboxyethyl)-16-(((3S,6S)-6-((2-hydroxy-5-oxotetrahydrofuran-3-yl)carbamoyl)-4-oxo-1,2,3,4,6,7-hexahydroazepino[3,2,1-hi]indol-3-yl)carbamoyl)-17-methyl-2,5,8,14-tetraoxo-12-oxa-3,6,9,15-tetraazanonadecyl)piperidin-4-yl)methyl)-1,4,7-triazonane-1,4-diyl)diacetic acid, aluminum fluoride complex (1:1)], the IC50 came out at 2.8 nM.
Consider `CC[C@H](C)[C@H](NC(=O)CC[C@@H](NC(=O)CN1CCN(C(=O)CN2CCN3CCN(CC2)CC(=O)[O][Al]([F])[O]C(=O)C3)CC1)C(=O)O)C(=O)N[C@H]1CCc2cccc3c2N(C1=O)[C@H](C(=O)NC1CC(=O)OC1O)C3` (stereo partly drawn) [Compound 14-Al, 2,2′-(7-(2-(4-(2-(((1R)-1-carboxy-4-(((2S,3S)-1-(((3S,6S)-6-((2-hydroxy-5-oxotetrahydrofuran-3-yl)carbamoyl)-4-oxo-1,2,3,4,6,7-hexahydroazepino[3,2,1-hi]indol-3-yl)amino)-3-methyl-1-oxopentan-2-yl)amino)-4-oxobutyl)amino)-2-oxoethyl)piperazin-1-yl)-2-oxoethyl)-1,4,7-triazonane-1,4-diyl)diacetic acid, aluminum fluoride complex (1:1)], for which the IC50 was determined as 2.7 nM.
As for `CC[C@H](C)[C@H](NC(=O)COCCNC(=O)[C@@H](CCC(=O)O)NC(=O)CN1CCN(C(=O)CN2CCN3CCN(CC2)CC(=O)[O][Al]([F])[O]C(=O)C3)CC1)C(=O)N[C@H]1CCc2cccc3c2N(C1=O)[C@H](C(=O)NC1CC(=O)OC1O)C3` (stereo partly drawn) [Compound 9-Al, 2,2′-(7-(2-(4-((4R,13S,14S)-4-(2-carboxyethyl)-13-(((3S,6S)-6-((2-hydroxy-5-oxotetrahydrofuran-3-yl)carbamoyl)-4-oxo-1,2,3,4,6,7-hexahydroazepino[3,2,1-hi]indol-3-yl)carbamoyl)-14-methyl-2,5,11-trioxo-9-oxa-3,6,12-triazahexadecyl)piperazin-1-yl)-2-oxoethyl)-1,4,7-triazonane-1,4-diyl)diacetic acid, aluminum fluoride complex (1:1)], the concentration for half-maximal inhibition (IC50) turned out to be 3.5 ± 0.78 nM.
As to `CC[C@H](C)[C@H](NC(=O)CNC(=O)CNC(=O)[C@H](CCC(=O)O)NC(=O)CN1CCC(CN2CCN3CCN(CC2)CC(=O)[O][Al]([F])[O]C(=O)C3)CC1)C(=O)N[C@H]1CCc2cccc3c2N(C1=O)[C@H](C(=O)NC1CC(=O)OC1O)C3` (stereo partly drawn) [Compound 2-Al, 2,2′-(7-((1-((4S,13S,14S)-4-(2-carboxyethyl)-13-(((3S,6S)-6-((2-hydroxy-5-oxotetrahydrofuran-3-yl)carbamoyl)-4-oxo-1,2,3,4,6,7-hexahydroazepino[3,2,1-hi]indol-3-yl)carbamoyl)-14-methyl-2,5,8,11-tetraoxo-3,6,9,12-tetraazahexadecyl)piperidin-4-yl)methyl)-1,4,7-triazonane-1,4-diyl)diacetic acid aluminum fluoride complex (1:1)] (X2-EGGI[Haic]-{NH(5-HO-2-oxo-oxolan-4-yl)}), the concentration for half-maximal inhibition (IC50) worked out at 7.5 nM.
`CC[C@H](C)[C@H](NC(=O)CCNC(=O)[C@@H](CCC(=O)O)NC(=O)CCNC(=O)CN1CCC(CN2CCN3CCN(CC2)CC(=O)[O][Al]([F])[O]C(=O)C3)CC1)C(=O)N[C@H]1CCc2cccc3c2N(C1=O)[C@H](C(=O)NC1CC(=O)OC1O)C3` (stereo partly drawn) [Compound 7-Al, 2,2′-(7-((1-((8R,15S,16S)-8-(2-carboxyethyl)-15-(((3S,6S)-6-((2-hydroxy-5-oxotetrahydrofuran-3-yl)carbamoyl)-4-oxo-1,2,3,4,6,7-hexahydroazepino[3,2,1-hi]indol-3-yl)carbamoyl)-16-methyl-2,6,9,13-tetraoxo-3,7,10,14-tetraazaoctadecyl)piperidin-4-yl)methyl)-1,4,7-triazonane-1,4-diyl)diacetic acid, aluminum fluoride complex (1:1)]: the IC50 was determined as 6.7 nM.
Take `CC[C@H](C)[C@H](NC(=O)CCNC(=O)CC[C@H](NC(=O)CN1CCC(CN2CCN3CCN(CC2)CC(=O)[O][Al]([F])[O]C(=O)C3)CC1)C(=O)O)C(=O)N[C@H]1CCc2cccc3c2N(C1=O)[C@H](C(=O)NC1CC(=O)OC1O)C3` (stereo partly drawn) [Compound 6-Al, 2,2′-(7-((1-(2-(((1S)-1-carboxy-4-((3-(((2S,3S)-1-(((3S,6S)-6-((2-hydroxy-5-oxotetrahydrofuran-3-yl)carbamoyl)-4-oxo-1,2,3,4,6,7-hexahydroazepino[3,2,1-hi]indol-3-yl)amino)-3-methyl-1-oxopentan-2-yl)amino)-3-oxopropyl)amino)-4-oxobutyl)amino)-2-oxoethyl)piperidin-4-yl)methyl)-1,4,7-triazonane-1,4-diyl)diacetic acid, aluminum fluoride complex (1:1)]: the half-inhibitory concentration (IC50) was found to be 4.5 nM.
